Reference: patent publication US10570184B2, “GLP-1/glucagon receptor co-agonists for medical use” (Novo Nordisk A/S, priority 2014, dated 2020)
Starred links: 1 amine or outer side, 2 acyl side, 3 side chain; linkers in the order of their positions; H or OH if unused. Non-standard residues stand in square brackets, D forms with d. Residues, ends and D or L forms follow the SMILES beside them. Groups on a side chain read outwards from the residue. *: point of attachment. C18 diacid = O=C(O)CCCCCCCCCCCCCCCCC(=O)*; γGlu = O=C(O)[C@H](CCC(=O)[*:2])N[*:1]; Ac4c = NC1(C(=O)O)CCC1; AEEA = NCCOCCOCC(=O)O; Aib = CC(C)(N)C(=O)O

Each molecule was assayed against T1, human glucagon receptor (Homo sapiens, UniProt P47871) (assay: Assay (I)(b) glucagon receptor activation, CRE luciferase reporter gene assay in BHK cells). Details: without presence of serum albumin; read-out: GlucagonR EC50 (pM), [Assay (I)(b)].
T1 construct: expressed in transfected cells; host or cells: membranes of BHK cells, clone BHK hGCGR A3*25
Format: cell-based
Method: The purpose of this example was to test the activity or potency, of the glucagon derivatives of the invention, in vitro. The in vitro potency is the measure of human GLP-1 receptor (GLP-1R) or glucagon receptor (glucagonR) activation, respectively, in a whole cell assay. In vitro potency was determined by measuring the response of human GLP-1 or glucagon receptor, respectively, in a reporter gene assay. The assay was performed in a stably transfected BHK cell line that expresses either the human GLP-1 receptor or the human glucagon receptor and contains the DNA for the cAMP response element (CRE) coupled to a promoter and the gene for firefly luciferase (CRE luciferase). […] When assay incubation was completed, the luciferase substrate (luciferin) was added and the enzyme converted luciferin to oxyluciferin and produces bioluminescence. The luminescence was measured as the readout for the assay. The cells used in this assay (clone pLJ6′-4-25) were BHK cells with BHK570 as a parent cell line expressing the CRE luciferase gene (clone BHK/KZ10-20-48) and were established by further transfection with the human glucagon receptor (clone pLJ6′ in pHZ-1 vector). The cells were cultured at 5% CO2 in DMEM medium with 10% FBS, 1×GlutaMAX, 1 mg/ml G418, 240 nM MTX (methotrexate) and 1% pen/strep (penicillin/streptomycin). They were aliquoted and stored in liquid nitrogen. Before each assay, an aliquot was taken up and washed three times in PBS before being suspended at the desired concentration in assay medium. For 96-well plates the suspension was made to give a final concentration of 5×10EE3 cells/well. The following chemicals were used in the assay: Pluronic F-68 (10%) (Gibco 2404), ovalbumin (Sigma A5503), DMEM w/o phenol red (Gibco 11880-028), 1 M Hepes (Gibco 15630), Glutamax 100× (Gibco 35050) and steadylite plus (PerkinElmer 6016757). Assay Medium consisted of DMEM w/o phenol red, 10 mM Hepes, 1× GlutaMAX, 2% Ovalbumin and 0.2% Pluronic F-68. Cell stocks were thawed in a 37° C. water bath. Cells were washed three times in PBS. The cells were counted and adjusted to 5×10EE3 cells/50 μl (1×10EE5 cells/ml) in Assay Medium. A 50 μl aliquot of cells was transferred to each well in the assay plate. Stocks of the test compounds and reference compounds were diluted to a concentration of […] in Assay Medium. Compounds were diluted 10-fold to give the following concentrations: 2×10EE-6 M, 2×10EE-7 M, 2×10EE-8 M; 2×10EE-9 M, 2×10EE-10 M, 2×10EE-11 M, 2×10EE-12 M and 2×10EE-13 M. For each compound a blank assay medium control was also included. A 50 μl aliquot of compound or blank was transferred from the dilution plate to the assay plate. Compounds were tested at the following final concentrations: 1×10EE-6 M, 1×10EE-7 M, 1×10EE-8 M; 1×10EE-9 M, 1×10EE-10 M, 1×10EE-11 M and 1×10EE-12 M and 1×10EE-13 M. The assay plate was incubated for 3 h in a 5% CO2 incubator at 37° C. The assay plate was removed from the incubator and allowed to stand at room temperature for 15 min. A 100 μl aliquot of steadylite plus reagent was added to each well of the assay plate (reagent is light sensitive). Each assay plate was covered with aluminum foil to protect it from light and shaken for 30 min at room temperature. Each assay plate was read in a Perkin Elmer TopCount NXT instrument. The data from the TopCount instrument was transferred to GraphPad Prism software. The software performed a non-linear regression (log(agonist) vs response-Variable slope (four parameter)). EC50 values were calculated by the software and reported in pM.

T1 sequence (P47871 26-477): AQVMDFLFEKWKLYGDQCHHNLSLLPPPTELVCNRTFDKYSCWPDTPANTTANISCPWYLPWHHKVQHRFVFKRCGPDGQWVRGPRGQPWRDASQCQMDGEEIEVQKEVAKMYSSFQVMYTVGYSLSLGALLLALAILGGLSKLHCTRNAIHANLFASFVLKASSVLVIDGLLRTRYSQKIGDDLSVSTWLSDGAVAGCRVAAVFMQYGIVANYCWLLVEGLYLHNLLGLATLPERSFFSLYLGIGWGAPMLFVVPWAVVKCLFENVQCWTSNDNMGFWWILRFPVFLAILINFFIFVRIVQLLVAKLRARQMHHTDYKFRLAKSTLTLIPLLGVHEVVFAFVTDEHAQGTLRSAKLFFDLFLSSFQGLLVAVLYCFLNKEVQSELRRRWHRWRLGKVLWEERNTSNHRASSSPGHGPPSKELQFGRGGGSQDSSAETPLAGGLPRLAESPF

In order of falling EC50:
1. CC[C@H](C)[C@H](NC(=O)[C@H](CC(C)C)NC(=O)[C@H](Cc1c[nH]c2ccccc12)NC(=O)[C@H](C)NC(=O)[C@@H](NC(=O)[C@H](Cc1ccccc1)NC(=O)[C@H](CC(=O)O)NC(=O)[C@H](CCC(N)=O)NC(=O)[C@H](C)NC(=O)[C@H](CCCNC(=N)N)NC(=O)[C@H](CCCNC(=N)N)NC(=O)[C@H](CO)NC(=O)[C@H](CCC(=O)O)NC(=O)[C@H](CC(C)C)NC(=O)[C@H](Cc1ccc(O)cc1)NC(=O)[C@H](CCCCN)NC(=O)[C@H](CO)NC(=O)[C@H](Cc1ccc(O)cc1)NC(=O)[C@H](CC(=O)O)NC(=O)[C@H](CO)NC(=O)[C@@H](NC(=O)[C@H](Cc1ccccc1)NC(=O)[C@@H](NC(=O)CNC(=O)[C@H](CCC(N)=O)NC(=O)C(C)(C)NC(=O)[C@@H](N)Cc1c[nH]cn1)[C@@H](C)O)[C@@H](C)O)C(C)C)C(=O)N[C@@H](CCCCNC(=O)CC[C@H](NC(=O)CC[C@H](NC(=O)COCCOCCNC(=O)COCCOCCNC(=O)CC[C@H](NC(=O)CCCCCCCCCCCCCCCCC(=O)O)C(=O)O)C(=O)O)C(=O)O)C(=O)N[C@H](C(N)=O)[C@@H](C)O [Chem. 34, N^ε28-[(4S)-4-carboxy-4-[[(4S)-4-carboxy-4-[[2-[2-[2-[[2-[2-[2-[[(4S)-4-carboxy-4-(17-carboxyheptadecanoylamino)butanoyl]amino]ethoxy]ethoxy]acetyl]amino]ethoxy]ethoxy]acetyl]amino]butanoyl]amino]butanoyl]-[Aib2,Glu15,Ala24,Ile27,Lys28]-Glucagon amide] (H-H[Aib]QGTFTSDYSKYLESRRAQDFVAWLIK([γGlu-γGlu-AEEA-AEEA-γGlu-C18 diacid])T-NH2)  66 pM
2. CC[C@H](C)[C@H](NC(=O)[C@H](CC(C)C)NC(=O)[C@H](Cc1c[nH]c2ccccc12)NC(=O)[C@H](CCC(N)=O)NC(=O)[C@@H](NC(=O)[C@H](Cc1ccccc1)NC(=O)[C@H](CCC(=O)O)NC(=O)[C@H](CCC(N)=O)NC(=O)[C@H](C)NC(=O)[C@H](CCCNC(=N)N)NC(=O)[C@H](CCCNC(=N)N)NC(=O)[C@H](CO)NC(=O)[C@H](CCC(=O)O)NC(=O)[C@H](CC(C)C)NC(=O)[C@H](Cc1ccc(O)cc1)NC(=O)[C@H](CCCCN)NC(=O)[C@H](CO)NC(=O)[C@H](CC(C)C)NC(=O)[C@H](CC(=O)O)NC(=O)[C@H](CO)NC(=O)[C@@H](NC(=O)[C@H](Cc1ccccc1)NC(=O)[C@@H](NC(=O)CNC(=O)[C@H](CCC(N)=O)NC(=O)C1(NC(=O)[C@@H](N)Cc2c[nH]cn2)CCC1)[C@@H](C)O)[C@@H](C)O)C(C)C)C(=O)N[C@@H](CCCCNC(=O)CC[C@H](NC(=O)COCCOCCNC(=O)COCCOCCNC(=O)CC[C@H](NC(=O)CC[C@H](NC(=O)CCCCCCCCCCCCCCCCC(=O)O)C(=O)O)C(=O)O)C(=O)O)C(=O)N[C@H](C(N)=O)[C@@H](C)O [Chem. 38, N^ε28-[(4S)-4-carboxy-4-[[2-[2-[2-[[2-[2-[2-[[(4S)-4-carboxy-4-[[(4S)-4-carboxy-4-(17-carboxyheptadecanoylamino)butanoyl]amino]butanoyl]amino]ethoxy]ethoxy]acetyl]amino]ethoxy]ethoxy]acetyl]amino]butanoyl]-[Acb2,Leu10,Glu15,Glu21,Ile27,Lys28]-Glucagon amide] (H-H[Ac4c]QGTFTSDLSKYLESRRAQEFVQWLIK([γGlu-AEEA-AEEA-γGlu-γGlu-C18 diacid])T-NH2; N-terminus assumed)  12 pM
3. CC[C@H](C)[C@H](NC(=O)[C@H](CC(C)C)NC(=O)[C@H](Cc1c[nH]c2ccccc12)NC(=O)[C@H](C)NC(=O)[C@@H](NC(=O)[C@H](Cc1ccccc1)NC(=O)[C@H](CC(=O)O)NC(=O)[C@H](CCCNC(=N)N)NC(=O)[C@H](C)NC(=O)[C@H](CCCNC(=N)N)NC(=O)[C@H](CCCNC(=N)N)NC(=O)[C@H](C)NC(=O)[C@H](CC(=O)O)NC(=O)[C@H](CC(C)C)NC(=O)[C@H](Cc1ccc(O)cc1)NC(=O)[C@H](CCCCN)NC(=O)[C@H](CO)NC(=O)[C@H](Cc1ccc(O)cc1)NC(=O)[C@H](CC(=O)O)NC(=O)[C@H](CO)NC(=O)[C@@H](NC(=O)[C@H](Cc1ccccc1)NC(=O)[C@@H](NC(=O)CNC(=O)[C@H](CCC(N)=O)NC(=O)C(C)(C)NC(=O)[C@@H](N)Cc1c[nH]cn1)[C@@H](C)O)[C@@H](C)O)C(C)C)C(=O)N[C@@H](CCCCNC(=O)CC[C@H](NC(=O)CC[C@H](NC(=O)COCCOCCNC(=O)COCCOCCNC(=O)CC[C@H](NC(=O)CCCCCCCCCCCCCCCCC(=O)O)C(=O)O)C(=O)O)C(=O)O)C(=O)N[C@H](C(N)=O)[C@@H](C)O [Chem. 32, N^ε28-[(4S)-4-carboxy-4-[[(4S)-4-carboxy-4-[[2-[2-[2-[[2-[2-[2-[[(4S)-4-carboxy-4-(17-carboxyheptadecanoylamino)butanoyl]amino]ethoxy]ethoxy]acetyl]amino]ethoxy]ethoxy]acetyl]amino]butanoyl]amino]butanoyl]-[Aib2,Ala16,Arg20,Ala24,Ile27,Lys28]-Glucagon amide] (H-H[Aib]QGTFTSDYSKYLDARRARDFVAWLIK([γGlu-γGlu-AEEA-AEEA-γGlu-C18 diacid])T-NH2)  7 pM
